Source: patent publication USH1992H, “Metalloproteinase inhibitors, pharmaceutical compositions containing them, and their pharmaceutical uses” (Agouron Pharmaceuticals, Inc., priority 1999, dated 2001)

How the values were obtained:
Type in all cases: biochemical
[1] = target: human gelatinase A (Gel A); experiment: Inhibition of gelatinase A (Gel A) - fluorogenic MCA peptide substrate hydrolysis; conditions: catalytic and fibronectin-like portion; Ki,app; MCA peptide substrate 10 μM, pH 7.5, 37° C., 2% DMSO; enzyme 60 pM
Procedure: The catalytic and fibronectin-like portion of human progelatinase A (GelA) was expressed as a fusion protein with ubiquitin in E. Coli. Assays were carried out on autocatalytically activated material.
(§1) Assays were performed in assay buffer (50 mM Tricine pH 7.5, 200 mM sodium chloride, 10 mM calcium chloride, 0.5 mM zinc acetate containing 2% dimethyl sulfoxide (DMSO)), once the substrate and inhibitor were diluted into it. Stock solutions of inhibitors were prepared in 100 % DMSO. Stock solutions of the substrate were prepared in 100 % DMSO at a concentration of 6 mM.
(§2) The assay method was based on the hydrolysis of MCA-Pro-Leu-Gly-Leu-DPA-Ala-Arg-NH2 (American Peptide Co.) at 37° C. (see Knight, C. G. et al., FEBS, 1992, 296, 263-266, which article is entirely incorporated herein by reference). The fluorescence changes were monitored with a Perkin-Elmer LS-50B fluorimeter using an excitation wavelength of 328 nm and an emission wavelength of 393 nm. The substrate concentration used in the assays was 10 μM. The inhibitor was diluted into the assays from a solution in 100 % DMSO, and controls substituted an equal volume of DMSO so that the final DMSO concentration from inhibitor and substrate dilution in all assays was 2%. […] Proper determination of steady-state rates of substrate cleavage required assay lengths of 60 minutes to allow for complete equilibration of the enzyme-inhibitor complex.
(§3) The Km for the MCA peptide substrate with the matrix metalloproteinases is quite high and exceeds its solubility under assay conditions. Consequently, the apparent Ki (Ki, app) was determined to describe the strength of inhibition. However, in this case, Ki,app would be essentially equal to Ki since [S]<<Km. For the determination of Ki,app, the concentration of the inhibitor was varied at a constant and low concentration of substrate, and the steady-state rates of fluorescence change were determined. In most cases, absorptive quench due to the presence of ligand was not observed. For slow-binding inhibitors, onset of inhibition curves were collected for at least 45 minutes so that equilibrium was established. Steady-state rates of fluorescence change were obtained by fitting a curve to an equation for a single exponential decay containing a linear phase. The fitted value of the linear phase was taken as the steady-state rate. The steady-state rates were fitted to the Michaelis equation describing competitive inhibition by non-linear methods. Data resulting from tight-binding inhibition was analyzed, and Ki,app determined by fitting the data to the tight-binding equation of Morrison (Biochem. Biophys. Acta, vol. 185, pp. 269-286 (1969), which article is entirely incorporated herein by reference) by non-linear methods.
(§4) All Ki values are in nM units.

human matrilysin (Matr) = target: T1, human matrilysin (Matr) (Homo sapiens, UniProt P09237); experiment: Inhibition of matrilysin (Matr) - fluorogenic MCA peptide substrate hydrolysis; conditions: catalytic domain; Ki,app; MCA peptide substrate 10 μM, pH 7.5, 37° C., 2% DMSO
T1 construct: the catalytic domain was liberated by treatment with 2mM APMA; ubiquitin (fusion) (cleaved yes); made in house; host or cells: E. coli
T1 sequence (P09237 95-267): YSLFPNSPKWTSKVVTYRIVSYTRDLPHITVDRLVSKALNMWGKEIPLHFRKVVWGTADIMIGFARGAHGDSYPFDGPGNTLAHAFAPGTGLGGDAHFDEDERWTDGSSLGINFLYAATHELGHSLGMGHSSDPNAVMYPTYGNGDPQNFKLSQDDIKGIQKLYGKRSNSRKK
Procedure: Human matrilysin (Matr) was expressed in E. coli as a fusion protein with ubiquitin. After purification of the matrilysin/ubiquitin fusion from inclusion bodies, the catalytic domain was liberated by treatment with 2mM APMA at 37 ° C. for 2 hours. Final purification was complete using copper chelate chromatography.
as §1, §2, §3, §4

[2] = target: T2, human collagenase-1 (HFC) (Homo sapiens, UniProt P03956); experiment: Inhibition of collagenase-1 (HFC) - fluorogenic MCA peptide substrate hydrolysis; conditions: catalytic domain; Ki,app; MCA peptide substrate 10 μM, pH 7.5, 37° C., 2% DMSO
T2 construct: the fibroblast collagenase-1 catalytic domain (HFC) was released; ubiquitin (fusion) (cleaved yes); made in house; host or cells: E. coli
T2 sequence (P03956 100-269 limits assumed): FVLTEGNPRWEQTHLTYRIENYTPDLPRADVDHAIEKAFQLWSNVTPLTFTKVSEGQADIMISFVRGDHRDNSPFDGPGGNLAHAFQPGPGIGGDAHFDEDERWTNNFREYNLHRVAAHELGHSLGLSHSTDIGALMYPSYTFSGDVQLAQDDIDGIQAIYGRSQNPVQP
Source text: The catalytic domain of human collagenase-1 was expressed as a fusion protein with ubiquitin in E. coli (see Gehring, E. R., J. Biol. Chem., 1995, 270, 22507, which article is entirely incorporated herein by reference). After purification of the fusion protein, the fibroblast collagenase-1 catalytic domain (HFC) was released either by treatment with purified, active stromelysin-1 (1:50 w/w ratio), which generated nearly 100% N-terminal Phe1, or by autoprocessing the concentrated collagenase-1 fusion and then incubating at 37° C. for 1 hour. Final purification was completed using zinc chelate chromatography.
as §1, §2, §3, §4

[3] = target: T3, human stromelysin-1 (Strom) (Homo sapiens, UniProt P08254); experiment: Inhibition of stromelysin (Strom) - fluorogenic MCA peptide substrate hydrolysis; conditions: catalytic domain; Ki,app; MCA peptide substrate 10 μM, pH 7.5, 37° C., 2% DMSO; enzyme 1.5 nM
T3 construct: The catalytic domain of human stromelysin (Sln) was obtained by expression and purification of a C-terminally truncated prostromelysin-1; made in house; host or cells: E. coli BL21
T3 sequence (P08254 100-272 limits assumed): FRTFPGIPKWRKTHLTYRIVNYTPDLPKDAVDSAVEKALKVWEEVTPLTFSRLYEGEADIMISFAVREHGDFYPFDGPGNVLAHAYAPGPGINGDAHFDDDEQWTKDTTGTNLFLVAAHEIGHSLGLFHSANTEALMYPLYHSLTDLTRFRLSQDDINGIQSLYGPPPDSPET
Procedure: The catalytic domain of human stromelysin (Sln) was obtained by expression and purification of a C-terminally truncated prostromelysin-1 from E. coli host BL21 (see Marcy et al. Biochem., 1991, 30, 6476, which article is entirely incorporated herein by reference). The subsequent activation of the mature form (Sln) was completed with 2mM APMA for 1 hour at 37° C., followed by separation using a sizing column.
as §1, §2, §3, §4

[4] = target: human collagenase-3 (Coll-3); experiment: Inhibition of collagenase-3 (Coll-3) - fluorogenic MCA peptide substrate hydrolysis; conditions: catalytic domain; Ki,app; MCA peptide substrate 10 μM, pH 7.5, 37° C., 2% DMSO
Procedure: The propeptide and catalytic domain of human collagenase-3 (Coll3) was expressed in E. coli as an N-terminal fusion protein with ubiquitin. After purification of the fusion from inclusion bodies, the catalytic domain was liberated by treatment with 2mM APMA at room temperature overnight. Final purification was completed using copper chelate chromatography.
as §1, §2, §3, §4

**Q.** Which results are given for `O=C(NO)[C@H]1CCCCN1S(=O)(=O)c1ccc(Oc2ccc(Br)cc2)cc1` [Example 5, 2(R)-1-[4-(4-Bromophenoxy)benzenesulfonyl]-N-hydroxypiperidine-2-carboxamide]?
**A.** Ki [1]: 0.018 nM; Ki (human matrilysin (Matr)): 44 nM; Ki [2]: 15 nM; Ki [3]: 0.04 nM; Ki [4]: 0.014 nM

**Q.** For `O=C(NO)[C@H]1CCCCN1S(=O)(=O)c1ccc(Oc2ccccc2)cc1` [Example 7, 2(R)-1-(4-Phenoxy-benzenesulfonyl)-N-hydroxy-piperidine-2-carboxamide], which Ki (human matrilysin (Matr)) is on record?
**A.** 55 nM

**Q.** And the Ki [2]?
**A.** 6.6 nM

**Q.** And the Ki [3]?
**A.** 0.07 nM

**Q.** `CCOP(=O)(CN(CC(=O)O)S(=O)(=O)c1ccc(Oc2ccccc2)cc1)OCC` [Example 4(a), 2(R)-2-[(diethylphosphonomethyl)(4-phenoxybenzenesulfonyl)-amino]-acetic acid] was tested. Which Ki [3] did it give?
**A.** 27000 nM

**Q.** What about the Ki [4] of the same compound?
**A.** 740 nM

**Q.** For `O=C(NO)[C@H]1CCCCN1S(=O)(=O)c1ccc(Oc2ccc(-c3ccccc3)cc2)cc1` [Example 6, 2(R)-1-[4-(Biphenyl-4-yl)oxybenzenesulfonyl]-N-hydroxy-piperidine-2-carboxamide], which Ki [1] is on record?
**A.** 0.014 nM

**Q.** And the Ki (human matrilysin (Matr))?
**A.** 6.7 nM

**Q.** What about the Ki [2] of the same compound?
**A.** 8.8 nM

**Q.** And the Ki [3]?
**A.** 0.06 nM

**Q.** Which Ki [1] does the source give for `O=C(O)[C@H]1CCCCN1S(=O)(=O)c1ccc(Oc2ccc(Br)cc2)cc1` [Example 5(a)] here?
**A.** 192 nM

**Q.** And the Ki (human matrilysin (Matr))?
**A.** 540000 nM

**Q.** And the Ki [2]?
**A.** 481000 nM

**Q.** And the Ki [3]?
**A.** 16000 nM

**Q.** What about the Ki [4] of the same compound?
**A.** 448 nM

**Q.** What does the source list for `CC(C)[C@H](C(=O)NO)N(Cc1cccnc1)S(=O)(=O)c1ccc(Oc2ccc(Br)cc2)cc1` [Example 3(a), 2(R)-2-[4-(4-Bromophenoxy)benzenesulfonyl][(pyridin-3-yl)methyl]amino-N-hydroxy-3-methylbutanamide]?
**A.** Ki [2]: 7.6 nM; Ki [3]: 0.35 nM; Ki [4]: 0.02 nM

**Q.** Which results are given for `O=C(O)[C@H]1CCCCN1S(=O)(=O)c1ccc(Oc2ccc(-c3ccccc3)cc2)cc1` [Example 6(a)]?
**A.** Ki [1]: 64 nM; Ki (human matrilysin (Matr)): 72000 nM; Ki [2]: 125000 nM; Ki [3]: 2190 nM; Ki [4]: 212 nM

**Q.** How did the Ki [2] turn out when `CCOP(=O)(CN(CC(=O)NO)S(=O)(=O)c1ccc(Oc2ccccc2)cc1)OCC` [Example 4, 2(R)-2-[(diethylphosphonomethyl)(4-phenoxybenzenesulfonyl)amino]-N-hydroxyacetamide] was run?
**A.** 27 nM

**Q.** What about the Ki [3] of the same compound?
**A.** 0.23 nM

**Q.** What about the Ki [4] of the same compound?
**A.** 0.09 nM

**Q.** Which results are given for `CC(C)[C@H](C(=O)NO)N(Cc1cccnc1)S(=O)(=O)c1ccc(Oc2ccccc2)cc1` [Example 3(b), 2(R)-N-hydroxy-2-[(4-phenoxy)benzenesulfonyl][(pyridin-3-yl)methyl]amino-3-methylbutanamide]?
**A.** Ki [2]: 6 nM; Ki [3]: 1.2 nM; Ki [4]: 0.05 nM
